Several values for one entry are separate records, joined by “and”; a condition that tells them apart may be missing. Equal values may be shown once. Read-outs that look alike come from different tables or passages of the source. Blank lines part the entries; values can stand above or below the compound they belong to.
Experiments:
[1] = tested on: ADP-induced platelet aggregation; assay: ADP-induced platelet aggregation (antiplatelet aggregation activity); format: cell-based; details: platelet aggregation induced by ADP (10 μM); mean ± SD, n = 5
Description: (§1) The antiplatelet aggregation activity of the target compounds was evaluated against ADP- and AA-induced platelet aggregation. In other words, different concentrations of the target compound solution and POC ([Zhang J. et al., 2021]) (10 μL) were added to the plasma at 37°C for 5 min. Then, platelets were stimulated with ADP (10 μM, 30 μL) or AA (1 mM, 30 μL). Variations in absorbance were monitored for 5 min in order to measure platelet aggregation ([Daron et al., 2022]). The platelet aggregation inhibition rate (AIR) was calculated according to the following formula: AIR = (rate of aggregation (control)−rate of aggregation (compounds))/rate of aggregation (control) × 100%

[2] = tested on: AA-induced platelet aggregation; assay: AA-induced platelet aggregation (antiplatelet aggregation activity); format: cell-based; details: platelet aggregation induced by AA (1 μM); mean ± SD, n = 5
Description: as §1, with “Then, platelets were stimulated with ADP (10 μM, 30 μL) or AA (1 mM, 30 μL).” left out

[3] = Pharmacokinetic study after single i.g. or i.v. administration to rats; format: in vivo; details: for AUC(0-t) / AUC(0-∞) / half-life / MRT last: single 6.4 mg/kg, mean ± SD; for AUC(0-t) / AUC(0-∞) / half-life: n = 6; for MRT last: n = 6, read-out: MRT (0-t) (converted)
Description: Six rats were given compound 8b (6.4 mg/kg) ([Zhang J. et al., 2021]) by intravenous injection (i.v.) and intragastric administration (i.g.), respectively. The animal experiment protocol was performed according to the guidelines for animal experiments and supervised by the Experimental Animal Ethics Committee of Anhui University of Chinese Medicine (AHUCM-rats-2019001). Then, approximately 1.0 mL of blood was taken from the orbital venous plexus of the rats and placed into an EP-containing heparin at predetermined time points of 3, 5, 10, 20, 30, 45, 60, 120, and 240 min after dosing. The blood sample was centrifuged for 15 min at 3,500 rpm to obtain plasma. For plasma preparation, 180 μL of plasma was mixed with 20 μL of glibenclamide as an internal standard and 900 μL of acetonitrile. The mixture was then centrifuged at 12,000 rpm for 10 min. After centrifugation, 800 μL of the supernatant was dried using a vacuum freeze dryer. The dried sample was then reconstituted with 200 μL of acetonitrile for LC/MS analysis. The analytical conditions for the plasma samples are as follows: a Hypersil GOLD C8 HPLC Column (2.1 mm × 100 mm, 1.9μm; Thermo Fisher Scientific, United States) was used for chromatographic separation. The column temperature was maintained at 30°C, and the sample chamber temperature was maintained at 4°C. A gradient elution with a flow rate of 0.2 mL/min (phase A: 0.1% formic acid, phase B: methanol) was carried out from 45% B to 80% within 2.5 min, then from […] to 90% within 1 min, and maintained at 90% for 1 min; subsequently, it was decreased from 90% to 45% in 30 s and maintained for 1 min. Multiple-reaction monitoring (MRM) was quoted as the acquisition mode of mass spectrometry in a positive ionization mode. The mass spectrometry detector was equipped with an electrospray ionization (ESI) source. The optimal MS parameters were as follows: the ion source temperature was set at 400°C, the vaporization temperature was set at 500°C, the electrospray voltage was set to 5500 V, and the capillary voltage was set to 3600 V. The ion pair of 8b is m/z 517.0 and 281.4, and the declustering voltage is 120 eV; the collision energy is 40 eV. Similarly, the ion pair of glibenclamide is m/z 494.1 and 169.0, the declustering voltage is 65 eV, and the collision energy is 50 eV.

[4] = tested on: PC12 cells; assay: Viability of PC12 cells, CCK-8 assay; format: cell-based, rat; details: 24 h
Description: (§2) For the cell culture conditions, rat pheochromocytoma PC12 cells (ATCC, Manassas, VA, United States) were cultured in RPMI 1640 culture medium with 1% penicillin and streptomycin and 10% fetal bovine serum (FBS) (Gibco, Waltham, MA, United States) at 37°C with 5% CO2.
Cell viability was assessed using a CCK-8 assay. The PC12 cells were seeded in a 96-well plate at a density of 1 × 10^5 cells per well. After incubation for 24 h, the cells were treated with various concentrations of the compound. After 24 h of re-incubation, the cell viability was evaluated using a 10% CCK-8 solution. The absorbance value was determined at 450 nm.

[5] = tested on: OGD/R PC12 cells; assay: Protective effect on OGD/R PC12 cells (oxygen-glucose deprivation), CCK-8; format: cell-based; details: Rattus norvegicus, mean ± SD, n = 5, read-out: Cell viability (%)
Description: as §2
For oxygen-glucose deprivation of PC12 cell activity, the procedure was conducted as follows ([Wei et al., 2022]): the cells were cultured in a 96-well plate for 24 h. Then, the culture medium was replaced with oxygen–glucose-free RPMI 1640 and placed in an incubator with 5% CO2 and 95% N2 for 2 h. Once the oxygen-free process was completed, the culture medium was changed back to RPMI 1640 and maintained at 37°C with 5% CO2 for an additional 24 h. Cell viability was then assessed using the CCK-8 assay.

[6] = set-up: method as in Zhang J. et al., 2021; details: found in the authors' previous study; ref Zhang J. et al., 2021; cited from earlier work

IC50 [1]: > 1000 µM | IC50 [2]: 462 ± 28.7 µM
Structure (SMILES): COc1ccc(C(C)=O)c(OCCCN2CCN(C(=O)C=Cc3ccc(Cn4ccnc4)cc3)CC2)c1 [PNC2]

IC50 [1]: 485 ± 31.1 µM | IC50 [2]: 74.7 ± 4.86 µM | time remained detectable in the blood ([3]; i.g.): up to 8 h | MRT i.g. relative to i.v. ([3]; i.g. longer than i.v.): 2.11 times | t1/2 i.g. relative to i.v. ([3]; i.g. longer than i.v.): 2.33 times | AUC(0-t) ([3]; i.g.): 6148.338 ± 2222.737 µg·min/L | AUC(0-∞) ([3]; i.g.): 8346.219 ± 3,719.156 μg/L*min | time within which peak concentration was visible ([3]; i.v.): ≤ 6 h | AUC(0-t) ([3]; i.v.): 18,552.773 ± 7438.264 μg/L*min | AUC(0-∞) ([3]; i.v.): 19,250.669 ± 7673.11 μg/L*min | half-life ([3]; rat, plasma, iv): 2.08 ± 0.295 h | MRT last ([3]; rat, plasma, iv): 2.5 h | Tmax ([3]; rat, plasma, po, 6.4 mg/kg, i.g., read-out: time of peak concentration in the blood): 1 h | half-life ([3]; rat, plasma, po, i.g.): 4.85 ± 1.74 h | MRT last ([3]; rat, plasma, po, i.g.): 5.28 h | AUC by i.g. relative to i.v. ([3]; ratio of AUC(0-t) i.g. vs i.v., 6.4 mg/kg): 33.3% and 33.1%
Structure (SMILES): COc1ccc(C(C)=O)c(OCCCCN2CCN(C(=O)C=Cc3ccc(Cn4ccnc4)cc3)CC2)c1 [PNC3]
impact on cell viability ([4]; 0–0.16 μM): no impact on cell viability | cell survival rate ([4]; 0.08 μM): 97.52% | cell survival rate ([4]; concentration exceeded 0.16 μM): 94.03% | viability at 0.02 µM ([5]; PC-12, 0.02 μM): 50.5 ± 2.95% | viability at 0.04 µM ([5]; PC-12, 0.04 μM): 54.2 ± 2.68% | viability at 0.08 µM ([5]; PC-12, 0.08 μM): 62.3 ± 3.14%

IC50 [1]: > 1000 µM | IC50 [2]: 234 ± 16.6 µM
Structure (SMILES): COc1ccc(C(C)=O)c(OCCCNC(=O)C=Cc2ccc(Cn3ccnc3)cc2)c1 [PNC5, 3-(4-((1H-imidazol-1-yl)methyl)phenyl)-N-(3-(2-acetyl-5-metho-xyphenoxy)propyl)acrylamide]

IC50 [1]: > 1000 µM | IC50 [2]: 692 ± 45.7 µM
Structure (SMILES): COc1ccc(C(C)=O)c(OCCCCCN2CCN(C(=O)C=Cc3ccc(Cn4ccnc4)cc3)CC2)c1 [PNC4]

More lines, now with the values behind:

Structure (SMILES): O=C(O)/C=C/c1ccc(Cn2ccnc2)cc1 [Ozagrel, (E)-sodium 4-(1-imidazolomethyl) cinnamate]
IC50 [1]: > 1000 µM | IC50 [2]: 52.5 ± 3.29 µM

Structure (SMILES): COc1ccc(C(C)=O)c(OC(=O)C=Cc2ccc(Cn3ccnc3)cc2)c1 [POC, reference compound]
IC50 [1]: 842 ± 53.3 µM | IC50 [2]: 349 ± 16 µM | stability [6]: unstable

From paper PMC10985144, “Design, synthesis, and evaluation of the novel ozagrel–paeonol codrug with antiplatelet aggregation activities as a potent anti-stroke therapeutic agent” (Frontiers in Pharmacology, 2024)
